Measurements published in article PMC8699473, “An Easily Expandable Multi-Drug LC-MS Assay for the Simultaneous Quantification of 57 Oral Antitumor Drugs in Human Plasma” (Cancers, 2021).

Experiment: Autosampler stability of ready for injection samples
Format: physicochemical, human

Compound: COc1cc2nccc(Oc3ccc(NC(=O)Nc4cc(C)on4)c(Cl)c3)c2cc1OC [Tivozanib]
- Autosampler (24h, 4°C) Accuracy [%] (validation standard 2xLLOV): 101.5%
- Autosampler (72h, 4°C) Accuracy [%] (validation standard 2xLLOV): 102.7%
- Autosampler (24h, 4°C) Accuracy [%] (validation standard LLOV): 94.0%
- Autosampler (72h, 4°C) Accuracy [%] (validation standard LLOV): 95.0%
- Autosampler (24h, 4°C) Accuracy [%] (validation standard MOV): 104.6%
- Autosampler (72h, 4°C) Accuracy [%] (validation standard MOV): 102.4%
- Autosampler (24h, 4°C) Accuracy [%] (validation standard ULOV): 101.6%
- Autosampler (72h, 4°C) Accuracy [%] (validation standard ULOV): 103.1%

Compound: CC(=O)Nc1cccc(-n2c(=O)n(C3CC3)c(=O)c3c(Nc4ccc(I)cc4F)n(C)c(=O)c(C)c32)c1 [Trametinib]
- Autosampler (24h, 4°C) Accuracy [%] (validation standard 2xLLOV): 105.8%
- Autosampler (72h, 4°C) Accuracy [%] (validation standard 2xLLOV): 101.8%
- Autosampler (24h, 4°C) Accuracy [%] (validation standard LLOV): 101.7%
- Autosampler (72h, 4°C) Accuracy [%] (validation standard LLOV): 100.1%
- Autosampler (24h, 4°C) Accuracy [%] (validation standard MOV): 103.1%
- Autosampler (72h, 4°C) Accuracy [%] (validation standard MOV): 103.5%
- Autosampler (24h, 4°C) Accuracy [%] (validation standard ULOV): 97.7%
- Autosampler (72h, 4°C) Accuracy [%] (validation standard ULOV): 97.0%

Compound: O=c1[nH]c(=O)n([C@H]2C[C@H](O)[C@@H](CO)O2)cc1C(F)(F)F [Trifluridine]
- Autosampler (24h, 4°C) Accuracy [%] (validation standard 2xLLOV): 117.8%
- Autosampler (72h, 4°C) Accuracy [%] (validation standard 2xLLOV): 107.4%
- Autosampler (24h, 4°C) Accuracy [%] (validation standard LLOV): 97.0%
- Autosampler (72h, 4°C) Accuracy [%] (validation standard LLOV): 86.9%
- Autosampler (24h, 4°C) Accuracy [%] (validation standard MOV): 113.1%
- Autosampler (72h, 4°C) Accuracy [%] (validation standard MOV): 102.7%
- Autosampler (24h, 4°C) Accuracy [%] (validation standard ULOV): 104.4%
- Autosampler (72h, 4°C) Accuracy [%] (validation standard ULOV): 98.4%

Compound: COc1cc2c(Nc3ccc(Br)cc3F)ncnc2cc1OCC1CCN(C)CC1 [Vandetanib]
- Autosampler (24h, 4°C) Accuracy [%] (validation standard 2xLLOV): 103.5%
- Autosampler (72h, 4°C) Accuracy [%] (validation standard 2xLLOV): 102.7%
- Autosampler (24h, 4°C) Accuracy [%] (validation standard LLOV): 85.9%
- Autosampler (72h, 4°C) Accuracy [%] (validation standard LLOV): 83.5%
- Autosampler (24h, 4°C) Accuracy [%] (validation standard MOV): 108.2%
- Autosampler (72h, 4°C) Accuracy [%] (validation standard MOV): 101.8%
- Autosampler (24h, 4°C) Accuracy [%] (validation standard ULOV): 95.3%
- Autosampler (72h, 4°C) Accuracy [%] (validation standard ULOV): 94.4%

Compound: CCCS(=O)(=O)Nc1ccc(F)c(C(=O)c2c[nH]c3ncc(-c4ccc(Cl)cc4)cc23)c1F [Vemurafenib]
- Autosampler (24h, 4°C) Accuracy [%] (validation standard 2xLLOV): 103.5%
- Autosampler (72h, 4°C) Accuracy [%] (validation standard 2xLLOV): 102.3%
- Autosampler (24h, 4°C) Accuracy [%] (validation standard LLOV): 112.7%
- Autosampler (72h, 4°C) Accuracy [%] (validation standard LLOV): 109.4%
- Autosampler (24h, 4°C) Accuracy [%] (validation standard MOV): 99.5%
- Autosampler (72h, 4°C) Accuracy [%] (validation standard MOV): 101.8%
- Autosampler (24h, 4°C) Accuracy [%] (validation standard ULOV): 104.1%
- Autosampler (72h, 4°C) Accuracy [%] (validation standard ULOV): 99.4%

Compound: CC1(C)CCC(CN2CCN(c3ccc(C(=O)NS(=O)(=O)c4ccc(NCC5CCOCC5)c([N+](=O)[O-])c4)c(Oc4cnc5[nH]ccc5c4)c3)CC2)=C(c2ccc(Cl)cc2)C1 [Venetoclax]
- Autosampler (24h, 4°C) Accuracy [%] (validation standard 2xLLOV): 106.9%
- Autosampler (72h, 4°C) Accuracy [%] (validation standard 2xLLOV): 104.7%
- Autosampler (24h, 4°C) Accuracy [%] (validation standard LLOV): 106.3%
- Autosampler (72h, 4°C) Accuracy [%] (validation standard LLOV): 103.3%
- Autosampler (24h, 4°C) Accuracy [%] (validation standard MOV): 100.0%
- Autosampler (72h, 4°C) Accuracy [%] (validation standard MOV): 102.3%
- Autosampler (24h, 4°C) Accuracy [%] (validation standard ULOV): 103.7%
- Autosampler (72h, 4°C) Accuracy [%] (validation standard ULOV): 102.7%

Compound: CCC1=C[C@@H]2CN(C1)Cc1c([nH]c3ccccc13)[C@@](C(=O)OC)(c1cc3c(cc1OC)N(C)[C@H]1[C@@](O)(C(=O)OC)[C@H](OC(C)=O)[C@]4(CC)C=CCN5CC[C@]31[C@@H]54)C2 [Vinorelbine]
- Autosampler (24h, 4°C) Accuracy [%] (validation standard 2xLLOV): 89.9%
- Autosampler (72h, 4°C) Accuracy [%] (validation standard 2xLLOV): 87.3%
- Autosampler (24h, 4°C) Accuracy [%] (validation standard LLOV): 65.0%
- Autosampler (72h, 4°C) Accuracy [%] (validation standard LLOV): 67.9%
- Autosampler (24h, 4°C) Accuracy [%] (validation standard MOV): 97.7%
- Autosampler (72h, 4°C) Accuracy [%] (validation standard MOV): 99.6%
- Autosampler (24h, 4°C) Accuracy [%] (validation standard ULOV): 102.4%
- Autosampler (72h, 4°C) Accuracy [%] (validation standard ULOV): 99.5%

Compound: CS(=O)(=O)c1ccc(C(=O)Nc2ccc(Cl)c(-c3ccccn3)c2)c(Cl)c1 [Vismodegib]
- Autosampler (24h, 4°C) Accuracy [%] (validation standard 2xLLOV): 105.1%
- Autosampler (72h, 4°C) Accuracy [%] (validation standard 2xLLOV): 109.2%
- Autosampler (24h, 4°C) Accuracy [%] (validation standard LLOV): 84.9%
- Autosampler (72h, 4°C) Accuracy [%] (validation standard LLOV): 85.6%
- Autosampler (24h, 4°C) Accuracy [%] (validation standard MOV): 108.4%
- Autosampler (72h, 4°C) Accuracy [%] (validation standard MOV): 107.5%
- Autosampler (24h, 4°C) Accuracy [%] (validation standard ULOV): 96.6%
- Autosampler (72h, 4°C) Accuracy [%] (validation standard ULOV): 99.7%
